PubChem BioAssay (NCI)
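Here, GI50 denotes the concentration required for 50% inhibition of growth. TGI is the concentration that stops growth completely.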

Experiments:
Assay in all cases: NCI anticancer screen, dose series, 384-well format
[1] = system: SN12C renal
[2] = system: SK-MEL-28 melanoma
[3] = system: SK-OV-3 ovarian
[4] = system: HT29 colon
[5] = system: SF-539 CNS
[6] = system: MDA-MB-231 breast
[7] = system: MALME-3M melanoma
[8] = system: NCI-H322M lung
[9] = system: SF-268 CNS
[10] = system: OVCAR-4 ovarian
[11] = system: NCI-H460 NSCLC
[12] = system: HCT-15 colon
[13] = system: NCI-H226 lung
[14] = system: A549 NSCLC
[15] = system: SNB-19 CNS
[16] = system: HCT-116 colon
[17] = system: TK-10 renal
[18] = system: MOLT-4 leukemia
[19] = system: HOP-92 NSCLC
[20] = system: ACHN renal
[21] = system: UACC-62 melanoma
[22] = system: T-47D breast
[23] = system: 786-0 renal
[24] = system: SR leukemia
[25] = system: CAKI-1 renal
[26] = system: HCC-2998 colon
[27] = system: HL-60(TB) leukemia
[28] = system: OVCAR-5 ovarian
[29] = system: NCI/ADR-RES ovarian
[30] = system: MDA-MB-435 melanoma
[31] = system: SK-MEL-2 melanoma
[32] = system: KM12 colon
[33] = system: SW-620 colon
[34] = system: MDA-MB-468 breast
[35] = system: M14 melanoma
[36] = system: IGROV1 ovarian
[37] = system: NCI-H522 lung
[38] = system: UACC-257 melanoma
[39] = system: UO-31 renal
[40] = system: K-562 leukemia
[41] = system: CCRF-CEM leukemia
[42] = system: BT-549 breast
[43] = system: SK-MEL-5 melanoma
[44] = system: OVCAR-3 ovarian
[45] = system: OVCAR-8 ovarian
[46] = system: A498 renal
[47] = system: DU-145 prostate
[48] = system: RXF 393 renal
[49] = system: PC-3 prostate
[50] = system: NCI-H23 lung
[51] = system: LOX IMVI melanoma
[52] = system: MCF7 breast
[53] = system: HOP-62 NSCLC
[54] = system: U251 glioblastoma
[55] = system: SF-295 CNS
[56] = system: COLO 205 colon

Compound: N[C@@H](CSSC[C@H](N)C(=O)N1CCn2cc(-c3ccccc3)nc2[C@@H]1CC1CCCCC1)C(=O)N1CCn2cc(-c3ccccc3)nc2[C@@H]1CC1CCCCC1
- GI50 [1]: 1560 nM
- TGI [1]: 2910 nM
- GI50 [2]: 146 nM
- TGI [2]: 1030 nM
- GI50 [3]: 242 nM
- TGI [3]: 1800 nM
- GI50 [4]: 1470 nM
- TGI [4]: 2840 nM
- GI50 [5]: 1720 nM
- TGI [5]: 3100 nM
- GI50 [6]: 1630 nM
- TGI [6]: 2990 nM
- GI50 [7]: 1140 nM
- TGI [7]: 2360 nM
- GI50 [8]: 2470 nM
- TGI [8]: 5640 nM
- GI50 [9]: 283 nM
- TGI [9]: 1160 nM
- GI50 [10]: 1940 nM
- TGI [10]: 3380 nM
- GI50 [11]: 288 nM
- TGI [11]: 1590 nM
- GI50 [12]: 1580 nM
- TGI [12]: 2930 nM
- GI50 [13]: 1820 nM
- TGI [13]: 3260 nM
- GI50 [14]: 1260 nM
- TGI [14]: 2530 nM
- GI50 [15]: 586 nM
- TGI [15]: 1870 nM
- GI50 [16]: 215 nM
- TGI [16]: 490 nM
- GI50 [17]: 1750 nM
- TGI [17]: 3150 nM
- GI50 [18]: 140 nM
- TGI [18]: 271 nM
- GI50 [19]: 1980 nM
- TGI [19]: 3440 nM
- GI50 [20]: 1950 nM
- TGI [20]: 3390 nM
- GI50 [21]: 176 nM
- TGI [21]: 349 nM
- GI50 [22]: 155 nM
- TGI [22]: 550 nM
- GI50 [23]: 1510 nM
- TGI [23]: 2930 nM
- GI50 [24]: 220 nM
- TGI [24]: 627 nM
- GI50 [25]: 1930 nM
- TGI [25]: 3560 nM
- GI50 [26]: 1700 nM
- TGI [26]: 3080 nM
- GI50 [27]: 796 nM
- TGI [27]: 1990 nM
- GI50 [28]: 1710 nM
- TGI [28]: 3150 nM
- GI50 [29]: 2350 nM
- TGI [29]: 5410 nM
- GI50 [30]: 677 nM
- TGI [30]: 1930 nM
- GI50 [31]: 184 nM
- TGI [31]: 524 nM
- GI50 [32]: 312 nM
- TGI [32]: 1550 nM
- GI50 [33]: 1020 nM
- TGI [33]: 2200 nM
- GI50 [34]: 1080 nM
- TGI [34]: 2280 nM
- GI50 [35]: 146 nM
- TGI [35]: 355 nM
- GI50 [36]: 1600 nM
- TGI [36]: 3310 nM
- GI50 [37]: 1610 nM
- TGI [37]: 2970 nM
- GI50 [38]: 257 nM
- TGI [38]: 702 nM
- GI50 [39]: 2070 nM
- TGI [39]: 3960 nM
- GI50 [40]: 551 nM
- TGI [40]: 1740 nM
- GI50 [41]: 294 nM
- TGI [41]: 1270 nM
- GI50 [42]: 1840 nM
- TGI [42]: 3250 nM
- GI50 [43]: 194 nM
- TGI [43]: 1300 nM
- GI50 [44]: 1100 nM
- TGI [44]: 2310 nM
- GI50 [45]: 1620 nM
- TGI [45]: 2980 nM
- GI50 [46]: 1630 nM
- TGI [46]: 3000 nM
- GI50 [47]: 1850 nM
- TGI [47]: 6340 nM
- TGI [48]: 1090 nM
- GI50 [49]: 1830 nM
- TGI [49]: 3260 nM
- GI50 [50]: 2120 nM
- TGI [50]: 4210 nM
- GI50 [51]: 1330 nM
- TGI [51]: 2620 nM
- GI50 [52]: 1460 nM
- TGI [52]: 2790 nM
- GI50 [53]: 1250 nM
- TGI [53]: 2530 nM
- GI50 [54]: 571 nM
- TGI [54]: 1890 nM
- GI50 [55]: 1940 nM
- TGI [55]: 3360 nM
- GI50 [56]: 1390 nM
- TGI [56]: 2700 nM
